Reference: patent US9295708B2, “Modified release formulations for oprozomib” (Onyx Therapeutics, Inc., priority 2012, dated 2016)
In brackets after ≈: the same amount, converted by molar mass.

Test: API solubility in water
Type: physicochemical

solubility: ~500 µg/mL (≈ 939 µM)
Structure (SMILES): COC[C@H](NC(=O)c1cnc(C)s1)C(=O)N[C@@H](COC)C(=O)N[C@@H](Cc1ccccc1)C(=O)[C@@]1(C)CO1 [API, Oprozomib]
